In brackets after ≈: the same amount, converted by molar mass. Like-named read-outs stand apart in the source and are kept apart here. Some results are limits rather than exact numbers.

Assay [1] relates to Staphylococcus aureus X1.1. Put plainly: MIC, standard agar-dilution assay. In kind it is cell-based. Conditions: read-out: MIC.
In assay [2] the test system is Staphylococcus aureus V41. The experiment in a line: MIC, standard agar-dilution assay. In kind it is cell-based. The following applies: Staphylococcus aureus V41, Penicillin-resistant strain, inducibly-resistant to erythromycin; read-out: MIC. From the text:
(§1) In addition to excellent in vitro activity against erythromycin-sensitive bacteria, several members of this new series have shown in vitro activity against erythromycin-resistant strains. These include strains which are inducibly-resistant to erythromycin (S.. aureus V41 and X400 and S. epidermidis EPI1) and even strains which are constitutively-resistant (S. epidermidis 270).

In assay [3] the test system is Staphylococcus aureus X400. The experiment in a line: MIC, standard agar-dilution assay. In kind it is cell-based. Conditions: Staphylococcus aureus X400, Methicillin-resistant strain, inducibly-resistant to erythromycin; read-out: MIC.
Description: as §1

Assay [4] has as its system Staphylococcus epidermidis 270. Put plainly: MIC, standard agar-dilution assay. In kind it is cell-based. The following applies: Staphylococcus epidermidis 270, constitutively-resistant to erythromycin.
Description: as §1

For assay [5], the system named is Staphylococcus aureus S13E. The experiment in a line: MIC, standard agar-dilution assay. The format is cell-based.
In assay [6] the test system is Staphylococcus epidermidis 222. The experiment in a line: MIC, standard agar-dilution assay. In kind it is cell-based.
The test system of assay [7] is Streptococcus pyogenes C203. The experiment in a line: MIC, standard agar-dilution assay. The following applies: read-out: MIC. The format is cell-based.
In assay [8] the test system is Streptococcus pneumoniae Park I. Put plainly: MIC, standard agar-dilution assay. In kind it is cell-based. The following applies: read-out: MIC.
Assay [9] concerns Streptococcus sp. group D X66. Put plainly: MIC, standard agar-dilution assay. The format is cell-based.
Assay [10] relates to Streptococcus sp. group D 2041. Put plainly: MIC, standard agar-dilution assay. The following applies: read-out: MIC. The format is cell-based.
The test system of assay [11] is Haemophilus influenzae C.L. Put plainly: MIC, standard agar-dilution assay. In kind it is cell-based. The following applies: Ampicillin-sensitive strain, read-out: MIC.
Assay [12] relates to Escherichia coli EC14. Put plainly: MIC, standard agar-dilution assay. In kind it is cell-based. Conditions: read-out: MIC.
Assay [13] has as its system Staphylococcus aureus. Put plainly: Experimental bacterial infection in mice, ED50. Conditions: Staphylococcus aureus, po, two doses, dose protecting 50% of animals, read-out: Oral ED50. The format is in vivo. As to the method: (§2) The new derivatives of this invention have also shown in vivo antimicrobial activity against experimental bacterial infections. When two doses of test compound were administered to mice in experimental infections, the activity observed was measured as an EDso value [effective dose in mg/kg to protect 50% of the test animals: see Warren Wick, et al., J. Bacteriol. 81, 233-235 (1961)].

Assay [14] deals with Streptococcus pneumoniae. Put plainly: Experimental bacterial infection in mice, ED50. In kind it is in vivo. The following applies: Streptococcus pneumoniae, po, two doses, dose protecting 50% of animals, read-out: Oral ED50. As to the method: as §2
Assay [15] has as its system Streptococcus pyogenes. The experiment in a line: Experimental bacterial infection in mice, ED50. The format is in vivo. The following applies: Streptococcus pyogenes, po, two doses, dose protecting 50% of animals, read-out: Oral ED50. As to the method: as §2
Assay [16] relates to Staphylococcus epidermidis EPI1. Put plainly: MIC, standard agar-dilution assay. The format is cell-based.
Description: as §1

In assay [17] the test system is Haemophilus influenzae 76. The experiment in a line: MIC, standard agar-dilution assay. In kind it is cell-based. Conditions: Haemophilus influenzae 76, Ampicillin-resistant strain; read-out: MIC.
Assay [18] has as its system Klebsiella pneumoniae X68. The experiment in a line: MIC, standard agar-dilution assay. The format is cell-based. Conditions: read-out: MIC.
Setting [19] is: Streptococcus sp. group D X66, read-out: MIC.

Regarding `CCCCC/C=C\CCCN[C@@H]1[C@H](C)[C@@H](O)[C@](C)(O)[C@@H](CC)OC(=O)[C@H](C)[C@@H](O[C@H]2C[C@@](C)(OC)[C@@H](O)[C@H](C)O2)[C@H](C)[C@@H](O[C@@H]2O[C@H](C)C[C@H](N(C)C)[C@H]2O)[C@](C)(O)C[C@H]1C` [Compound 13], the MIC in [1] was 0.25 µg/mL (≈ 0.286 µM); in assay [2] it was 8 µg/mL (≈ 9.16 µM); in assay [3], 8 µg/mL (≈ 9.16 µM); in [4], 32 µg/mL (≈ 36.6 µM); in assay [5], 0.25 µg/mL (≈ 0.286 µM); in assay [6] (read-out: MIC) it was 0.125 µg/mL (≈ 0.143 µM). Also, the MIC in assay [7] is < 0.008 µg/mL; in assay [8], < 0.008 µg/mL; in [9] (setting [19]), 0.06 µg/mL (≈ 0.0687 µM); in [10] it was 1 µg/mL (≈ 1.15 µM); in assay [11], 2 µg/mL (≈ 2.29 µM); in assay [12], 128 µg/mL (≈ 147 µM).

As usually defined, the ED50 is the dose that gives a 50% effect, or the effect in half of the subjects. Take `CC[C@H]1OC(=O)[C@H](C)[C@@H](O[C@H]2C[C@@](C)(OC)[C@@H](O)[C@H](C)O2)[C@H](C)[C@@H](O[C@@H]2O[C@H](C)C[C@H](N(C)C)[C@H]2O)[C@](C)(O)C[C@@H](C)[C@H](NCC#Cc2ccccc2)[C@H](C)[C@@H](O)[C@]1(C)O` [Compound 18]: the MIC was 1 µg/mL (≈ 1.18 µM) in assay [1]; 16 µg/mL (≈ 18.8 µM) in assay [2]; 32 µg/mL (≈ 37.7 µM) in assay [3]; 64 µg/mL (≈ 75.4 µM) in assay [4]; 0.5 µg/mL (≈ 0.589 µM) in assay [5]; 0.5 µg/mL (≈ 0.589 µM) in [6] (read-out: MIC). The MIC is < 0.008 µg/mL in assay [7]; < 0.008 µg/mL in assay [8]; 0.25 µg/mL (≈ 0.294 µM) in assay [9] (setting [19]); 1 µg/mL (≈ 1.18 µM) in [10]; 4 µg/mL (≈ 4.71 µM) in assay [11]. The ED50 in [13] was > 50 mg/kg; in assay [14] it was 33.9 mg/kg; in [15] it was 26.7 mg/kg.

With `CCCN1CO[C@@H]2[C@@H](C)[C@@H]1[C@H](C)C[C@@](C)(O)[C@H](O[C@@H]1O[C@H](C)C[C@H](N(C)C)[C@H]1O)[C@@H](C)[C@H](O[C@H]1C[C@@](C)(OC)[C@@H](O)[C@H](C)O1)[C@@H](C)C(=O)O[C@H](CC)[C@@]2(C)O` [Compound 59], the MIC was 0.25 µg/mL (≈ 0.317 µM) in [1]; 8 µg/mL (≈ 10.1 µM) in assay [2]; 8 µg/mL (≈ 10.1 µM) in [3]; > 128 µg/mL in assay [16]; 0.125 µg/mL (≈ 0.158 µM) in assay [5]; 0.125 µg/mL (≈ 0.158 µM) in assay [6]. Besides, the MIC is < 0.008 µg/mL in assay [7]; < 0.008 µg/mL in [8]; 0.125 µg/mL (≈ 0.158 µM) in [9] (Streptococcus); 1 µg/mL (≈ 1.27 µM) in assay [10]; 1 µg/mL (≈ 1.27 µM) in assay [11]; 2 µg/mL (≈ 2.53 µM) in assay [17]. In addition, the MIC in [12] is 32 µg/mL (≈ 40.6 µM); in assay [18], 128 µg/mL (≈ 162 µM). The ED50 in assay [13] is 7.2 mg/kg; in assay [14] it was 5 mg/kg; in [15] it was 4.8 mg/kg.

Consider `CCCCC/C=C/CCCN[C@@H]1[C@H](C)[C@@H](O)[C@](C)(O)[C@@H](CC)OC(=O)[C@H](C)[C@@H](O[C@H]2C[C@@](C)(OC)[C@@H](O)[C@H](C)O2)[C@H](C)[C@@H](O[C@@H]2O[C@H](C)C[C@H](N(C)C)[C@H]2O)[C@](C)(O)C[C@H]1C` [Compound 14, 9-Deoxo-9-[(trans-dec-4-enyl)amino]erythromycin], for which the MIC turned out to be 0.5 µg/mL (≈ 0.573 µM) in assay [1]; 8 µg/mL (≈ 9.16 µM) in [2]; 16 µg/mL (≈ 18.3 µM) in [3]; 32 µg/mL (≈ 36.6 µM) in assay [4]; 0.25 µg/mL (≈ 0.286 µM) in assay [5]; 0.25 µg/mL (≈ 0.286 µM) in assay [6] (read-out: MIC). In addition, the MIC in assay [7] was < 0.008 µg/mL; in assay [8], < 0.008 µg/mL; in [9] (setting [19]), 0.125 µg/mL (≈ 0.143 µM); in assay [10], 2 µg/mL (≈ 2.29 µM); in [11], 2 µg/mL (≈ 2.29 µM); in assay [12] it was 128 µg/mL (≈ 147 µM).

Source of the values: patent EP0238178B1, “Novel derivatives of erythromycylamine” (ELI LILLY AND COMPANY, priority 1986, dated 1987).
